Reference: US5338725A, “Anti-aggregatory agents for platelets” (The Research Foundation of the State University of New York, priority 1992, dated 1994)
Non-standard residues stand in square brackets, D forms with d. Residues, ends and D or L forms follow the SMILES beside them. 3Abz = Nc1cccc(C(=O)O)c1; 2Abz = Nc1ccccc1C(=O)O

Target: human platelet-rich plasma (Homo sapiens, UniProt P05106+P08514)
Test: In vitro inhibition of ADP-induced aggregation of human platelet-rich plasma (Coller assay)
Type: cell-based
Conditions: adjusted for fibrinogen concentration (ca. 30 times lower than Coller assay value; 0.1 mg/mL fibrinogen)
Description: 1. In vitro Inhibition of Aggregation of Human Platelet-Rich Plasma
Whole blood (10 ml) was collected from human volunteers and anticoagulated by addition of […] of 40% sodium citrate. Platelet-rich plasma (PRP) was prepared by low speed centrifugation (700 G for 3.5 min at 22° C.). The PRP was removed and the remaining blood was centrifuged at 2000 G for 10 min at 22 ° C. to obtain platelet poor plasma (PPP). The PRP was diluted with PPP to give a final platelet count of 300 000μL with a Coulter Acounter Model ZM (Coulter, Hialeah, Fla.). This diluted PRP (400μL) was placed in a siliconized glass cuvette equipped with a magnetic stirrer and stirred at 1200 rpm at 37° C. Various concentrations of the peptides (36μL) in TRIS buffer (0.01 M TRIS, 0.15 M NaCl, and 0.05% sodium azide, pH 7.4) was added and incubated for 3 rain before platelet aggregation was induced by addition of 54μL of 100μM ADP in HEPES buffer (0.01 M HEPES and 0.15 M NaCl, pH 7.5). The platelet aggregation was determined by a change in light transmission through the PRP on a Lumi Aggregometer 400rS (ChronoLog, Hayertown, PA). The ability of the peptides to inhibit platelet aggregation was evaluated and the IC50 was determined as the concentration of peptide required to produce 50% inhibition of the response to ADP in the presence of the TRIS buffer.
The assay system developed by Coller, which is used throughout the experiment, is different from conventional assay systems in certain aspects. First, the platelets used by Plow et al., Blood, 70, 110 (1987); and Garsky et al., Proc. Natl. Acad. Sci. U.S.A., 86, 4022 (1989) are gel-filtered to remove plasma proteins. Since the gel-filtration treatment may decrease the reactivity of the platelets, our assay avoids this step. The platelet count is adjusted by simply mixing PRP and PPP, which minimizes alterations of the platelets. Second, fibrinogen concentration in the Coller system is different from that of others. As shown in the experimental description of the assay, PRP was obtained from fresh blood and used immediately without further manipulation except for count adjustment. According to measurements obtained using this assay, such plasma contains ca. 3 mg of fibrinogen per 1 mL of plasma. On the other hand, fibrinogen concentration used in the Garsky and Plow assay system is 0.1 mg/mL. The concentration of fibrinogen affects the amount of RGD peptide required to inhibit platelet aggregation, with higher fibrinogen concentrations resulting in higher IC50 values. If there is a linear relationship between these two parameters, the IC50 values obtained from the Coller assay should be ca. 30 times larger than those obtained from the Plow et al. assay or the Garsky et al. assay. The adjusted IC50 values are presented in column 4 of Table showing the inhibitory activities of RGD peptides.
The following peptides were synthesized, and their amino acid contents were analyzed as described in procedures 3-7, above. In addition, their ability to inhibit aggregation of human platelet rich plasma was assessed as described in procedures 1 and 2, above. Their respective IC50 values, as well as their estimated IC50 adjusted to the values according the method of Plow et al., (vide supra) are listed in Table 1.

Chain of human platelet-rich plasma (P08514 32-1039): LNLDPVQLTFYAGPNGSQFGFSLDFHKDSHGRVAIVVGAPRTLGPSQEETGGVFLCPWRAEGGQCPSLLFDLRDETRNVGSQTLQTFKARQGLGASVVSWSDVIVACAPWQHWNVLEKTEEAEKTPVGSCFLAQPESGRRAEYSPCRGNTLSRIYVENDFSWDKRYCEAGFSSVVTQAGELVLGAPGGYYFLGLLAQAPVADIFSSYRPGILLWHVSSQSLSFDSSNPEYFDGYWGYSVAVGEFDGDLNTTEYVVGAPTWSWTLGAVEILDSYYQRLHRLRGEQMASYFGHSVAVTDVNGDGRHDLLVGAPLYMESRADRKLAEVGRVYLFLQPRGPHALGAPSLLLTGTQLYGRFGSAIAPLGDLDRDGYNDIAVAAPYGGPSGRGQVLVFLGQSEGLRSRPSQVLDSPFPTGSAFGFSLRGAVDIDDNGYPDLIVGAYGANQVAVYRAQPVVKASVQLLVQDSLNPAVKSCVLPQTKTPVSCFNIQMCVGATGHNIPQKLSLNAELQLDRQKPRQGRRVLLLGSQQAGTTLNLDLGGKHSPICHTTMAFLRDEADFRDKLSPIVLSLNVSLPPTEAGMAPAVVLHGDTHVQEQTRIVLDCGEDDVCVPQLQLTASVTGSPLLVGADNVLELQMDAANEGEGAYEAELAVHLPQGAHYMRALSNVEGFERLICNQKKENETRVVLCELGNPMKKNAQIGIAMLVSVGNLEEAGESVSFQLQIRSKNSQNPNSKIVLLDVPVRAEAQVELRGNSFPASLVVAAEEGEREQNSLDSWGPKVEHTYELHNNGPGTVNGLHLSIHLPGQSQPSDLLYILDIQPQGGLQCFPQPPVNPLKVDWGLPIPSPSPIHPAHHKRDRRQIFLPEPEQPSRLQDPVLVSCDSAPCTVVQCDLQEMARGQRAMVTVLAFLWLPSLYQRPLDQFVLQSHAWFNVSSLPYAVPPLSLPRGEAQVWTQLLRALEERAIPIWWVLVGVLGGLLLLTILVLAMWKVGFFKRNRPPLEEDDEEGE
Chain of human platelet-rich plasma (P05106 27-788): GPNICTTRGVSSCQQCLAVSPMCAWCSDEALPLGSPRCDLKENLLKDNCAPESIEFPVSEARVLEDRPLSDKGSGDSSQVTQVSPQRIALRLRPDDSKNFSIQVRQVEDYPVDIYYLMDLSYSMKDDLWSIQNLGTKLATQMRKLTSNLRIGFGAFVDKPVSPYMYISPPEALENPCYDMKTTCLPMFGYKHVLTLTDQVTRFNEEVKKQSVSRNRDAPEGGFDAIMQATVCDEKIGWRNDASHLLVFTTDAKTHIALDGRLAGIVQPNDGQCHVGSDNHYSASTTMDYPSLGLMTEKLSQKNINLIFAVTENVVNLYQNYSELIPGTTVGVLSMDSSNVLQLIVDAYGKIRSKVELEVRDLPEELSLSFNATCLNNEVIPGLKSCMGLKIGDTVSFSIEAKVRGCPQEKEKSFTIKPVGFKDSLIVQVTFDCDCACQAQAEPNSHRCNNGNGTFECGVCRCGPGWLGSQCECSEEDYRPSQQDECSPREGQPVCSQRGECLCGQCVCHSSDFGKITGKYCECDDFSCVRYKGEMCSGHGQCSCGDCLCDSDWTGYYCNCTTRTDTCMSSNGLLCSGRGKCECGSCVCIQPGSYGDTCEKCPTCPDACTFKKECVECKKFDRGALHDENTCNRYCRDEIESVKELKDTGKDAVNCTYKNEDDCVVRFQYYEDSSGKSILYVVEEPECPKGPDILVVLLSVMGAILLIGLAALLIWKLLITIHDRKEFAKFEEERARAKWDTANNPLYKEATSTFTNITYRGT

SMILES	IC50 (M)* Estimated IC50 adjusted to the values by the method of Plow et al. [M]
CC(C)[C@H](NC(=O)[C@H](CC(=O)O)NC(=O)CNC(=O)[C@H](CCCNC(=N)N)NC(=O)CN)C(=O)NCC(=O)Nc1ccccc1C(=O)NCC(=O)N[C@@H](CCCNC(=N)N)C(=O)NCC(=O)N[C@@H](CC(=O)O)C(=O)N[C@@H](Cc1ccccc1)C(N)=O [Example 28, GRGDVG--(o)Abz--GRGDF--NH2] (H-GRGDVG[2Abz]GRGDF-NH2)	3.1e-06
CC(C)[C@H](NC(=O)[C@H](CC(=O)O)NC(=O)CNC(=O)[C@H](CCCNC(=N)N)NC(=O)CN)C(=O)NCC(=O)Nc1cccc(C(=O)NCC(=O)N[C@@H](CCCNC(=N)N)C(=O)NCC(=O)N[C@@H](CC(=O)O)C(=O)N[C@@H](Cc2ccccc2)C(N)=O)c1 [Example 29, GRGDVG--(m)Abz--GRGDF--NH2] (H-GRGDVG[3Abz]GRGDF-NH2)	1.5e-06
